Here are results for 3 molecules from paper PMC9611727, “Optimization of a Novel Mandelamide-Derived Pyrrolopyrimidine Series of PERK Inhibitors” (Pharmaceutics, 2022).

Assay in all cases: scanMAX kinase panel
What all share (assay type): binding
What all share (conditions): read-out: % Control; for remaining binding at 1 µM: 1000 nM

One experiment addresses T1, FLT3(N841I) (Homo sapiens, UniProt P36888, N841I).
T1 construct: purchased DiscoverX scanMAX
T1 sequence (P36888 27-993 N841I): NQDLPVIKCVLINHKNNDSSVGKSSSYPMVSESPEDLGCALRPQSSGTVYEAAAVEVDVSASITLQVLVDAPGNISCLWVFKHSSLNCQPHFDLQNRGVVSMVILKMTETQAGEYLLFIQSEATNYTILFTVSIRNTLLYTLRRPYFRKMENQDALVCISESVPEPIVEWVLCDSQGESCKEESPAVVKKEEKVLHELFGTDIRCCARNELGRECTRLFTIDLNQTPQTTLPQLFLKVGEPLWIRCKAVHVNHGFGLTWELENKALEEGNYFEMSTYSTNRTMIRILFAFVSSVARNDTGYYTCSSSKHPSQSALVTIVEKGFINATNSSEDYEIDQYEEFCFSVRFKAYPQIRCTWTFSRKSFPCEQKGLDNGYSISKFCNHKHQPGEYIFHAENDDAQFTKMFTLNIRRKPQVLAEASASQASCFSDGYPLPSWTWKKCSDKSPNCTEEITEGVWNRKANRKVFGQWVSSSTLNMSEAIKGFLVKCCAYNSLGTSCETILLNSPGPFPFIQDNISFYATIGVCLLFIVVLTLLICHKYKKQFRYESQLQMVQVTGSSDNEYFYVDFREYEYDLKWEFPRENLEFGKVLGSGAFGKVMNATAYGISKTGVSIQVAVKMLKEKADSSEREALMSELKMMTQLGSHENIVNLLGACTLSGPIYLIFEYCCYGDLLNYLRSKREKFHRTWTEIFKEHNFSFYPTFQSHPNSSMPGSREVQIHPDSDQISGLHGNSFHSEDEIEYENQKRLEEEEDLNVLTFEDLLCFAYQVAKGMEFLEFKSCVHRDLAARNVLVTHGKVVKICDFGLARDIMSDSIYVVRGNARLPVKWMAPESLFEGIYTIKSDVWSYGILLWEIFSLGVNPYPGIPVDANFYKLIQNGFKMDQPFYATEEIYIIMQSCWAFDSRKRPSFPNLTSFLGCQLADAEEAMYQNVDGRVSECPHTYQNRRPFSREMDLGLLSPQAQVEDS
From the text: (§1) Supplemental Table S2. scanMAXSM Kinome Assay Results. Complete tabulated data of all 468 kinases from the panel, including
(§2) 403 wild-type and 65 mutant isoforms. […] Cmpd 11 and Cmpd 24

A further experiment has as its target T2, KIT (Homo sapiens, UniProt P10721).
T2 construct: purchased DiscoverX scanMAX
Excerpt: as §1, §2

For another experiment, the target named is T3, FLT3(D835H) (Homo sapiens, UniProt P36888, D835H).
T3 construct: purchased DiscoverX scanMAX
T3 sequence (P36888 27-993 D835H): T1 sequence (P36888 27-993 N841I) with D809H, I815N
Excerpt: as §1, §2

The target in a further experiment is T4, MEK5 (Homo sapiens, UniProt Q13163).
T4 construct: purchased DiscoverX scanMAX
T4 sequence (Q13163 1-448): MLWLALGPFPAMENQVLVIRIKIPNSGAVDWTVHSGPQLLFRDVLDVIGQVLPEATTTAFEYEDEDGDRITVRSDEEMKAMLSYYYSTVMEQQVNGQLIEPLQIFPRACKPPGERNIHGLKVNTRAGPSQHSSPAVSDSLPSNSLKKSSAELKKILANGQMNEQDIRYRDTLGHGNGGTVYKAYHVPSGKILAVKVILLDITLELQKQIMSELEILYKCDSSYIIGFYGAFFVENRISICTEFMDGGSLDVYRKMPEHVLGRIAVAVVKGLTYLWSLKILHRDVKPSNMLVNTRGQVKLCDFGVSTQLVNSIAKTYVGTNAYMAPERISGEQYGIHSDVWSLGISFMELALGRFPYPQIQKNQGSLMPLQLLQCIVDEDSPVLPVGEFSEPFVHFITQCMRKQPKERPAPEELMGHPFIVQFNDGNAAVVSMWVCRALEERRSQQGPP
Excerpt: as §1, §2

Residue numbers refer to the chain shown, from its start.

T2 sequence (P10721 26-976): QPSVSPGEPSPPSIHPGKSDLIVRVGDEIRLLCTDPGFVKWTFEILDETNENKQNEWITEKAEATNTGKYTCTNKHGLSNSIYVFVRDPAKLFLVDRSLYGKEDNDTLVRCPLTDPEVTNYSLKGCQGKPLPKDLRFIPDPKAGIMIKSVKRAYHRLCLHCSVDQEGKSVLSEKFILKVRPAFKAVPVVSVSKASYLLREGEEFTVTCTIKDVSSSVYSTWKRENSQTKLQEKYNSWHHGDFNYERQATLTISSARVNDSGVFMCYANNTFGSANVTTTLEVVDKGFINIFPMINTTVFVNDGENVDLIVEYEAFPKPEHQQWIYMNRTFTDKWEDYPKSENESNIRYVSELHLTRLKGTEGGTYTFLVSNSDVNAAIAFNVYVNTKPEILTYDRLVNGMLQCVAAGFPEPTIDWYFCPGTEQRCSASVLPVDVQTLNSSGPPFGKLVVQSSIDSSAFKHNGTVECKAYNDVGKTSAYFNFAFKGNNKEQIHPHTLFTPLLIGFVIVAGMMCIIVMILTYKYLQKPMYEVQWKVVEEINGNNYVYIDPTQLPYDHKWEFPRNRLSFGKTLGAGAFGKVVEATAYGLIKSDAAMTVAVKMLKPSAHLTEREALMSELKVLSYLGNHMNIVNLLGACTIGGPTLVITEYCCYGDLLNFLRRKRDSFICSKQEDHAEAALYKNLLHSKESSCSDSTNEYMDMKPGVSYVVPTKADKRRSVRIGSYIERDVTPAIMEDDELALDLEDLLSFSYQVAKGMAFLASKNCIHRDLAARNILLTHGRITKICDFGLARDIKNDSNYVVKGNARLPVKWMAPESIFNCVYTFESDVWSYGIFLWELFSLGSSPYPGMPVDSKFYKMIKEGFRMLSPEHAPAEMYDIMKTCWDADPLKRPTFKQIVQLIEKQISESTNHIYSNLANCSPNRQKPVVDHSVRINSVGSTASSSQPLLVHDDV

With `Cc1cc(NC(=O)[C@H](O)c2cccc(F)c2)ccc1-c1cn(C)c2ncnc(N)c12` [Compound 11, (R)-N-(4-(4-amino-7-methyl-7H-pyrrolo[2,3-d]pyrimidin-5-yl)-3-methylphenyl)-2-(3-fluorophenyl)-2-hydroxy acetamide], the remaining binding at 1 µM at FLT3(N841I) turned out to be 0.3%; on KIT, 38%; on FLT3(D835H), 33%; on MEK5 it was 1.1%.
As to `Cc1nc(N)c2c(-c3ccc(NC(=O)[C@H](O)c4cccc(C(F)(F)F)c4)cc3C)cn(C)c2n1` [Compound 26], the remaining binding at 0.1 µM at FLT3(N841I) (100 nM) was 34%; on KIT (100 nM) it was 97%; at FLT3(D835H) (100 nM), 85%; at MEK5 (100 nM), 100%. For the same molecule, the remaining binding at 1 µM came out at 0% on FLT3(N841I), 0.65% at KIT, 25% on FLT3(D835H) and 68% at MEK5.
In the case of `Cc1nc(N)c2c(-c3ccc(NC(=O)[C@H](O)c4cccc(F)c4)cc3C)cn(C)c2n1` [Compound 24], the remaining binding at 1 µM was found to be 100% at FLT3(N841I), 100% at KIT, 98% on FLT3(D835H) and 100% at MEK5.
